This note sets out measurements from patent US8354433B2, “Anti-inflammatory agents as virostatic compounds” (4SC AG, priority 2009, dated 2013).

Data set [1] concerns the target dihydroorotate dehydrogenase (DHODH) (Homo sapiens, UniProt Q02127). The data set is described as follows: DHODH inhibition, in vitro assay. The format is biochemical.
Data set [2] deals with ET cell line (luc-ubi-neo/ET), Huh7. In words: CytoTox-1 cytotoxicity in ET cells. As to conditions: 24 h, cell unit μM.
The next data set relates to HIV-191US005. The data set is described as follows: Anti-HIV efficacy in fresh human PBMCs (RT activity and p24 ELISA). The format is cell-based, HIV-1. Particulars: Human immunodeficiency virus 1, PBMC, 168 h; for EC50: read-out: EC50/nM; for EC90: read-out: EC90/nM. Background: ELISA stands for enzyme-linked immunosorbent assay.
The next data set deals with human PBMCs. The data set is described as follows: MTS cytotoxicity in human PBMCs. As to conditions: seven days.
Data set [3] deals with HCV subgenomic replicon of genotype 1b. In words: microbe, parasite or virus in culture. The format is cell-based. Particulars: Hepatitis C virus, 24 h, read-out: Antiviral Activity EC50/nM.
The next data set concerns Influenza Virus (H7N7). In words: microbe, parasite or virus in culture. The class given is cell-based, avian influenza virus (Fowl Plaque Virus. As to conditions: unidentified influenza virus, H7N7, A549, 16 h; for inhibition at 30 µM: read-out: Antiviral Activity % Inhibition.
Setting [4] is: Table 2, read-out: DHODH IC50/nM.
Setting [5] is: Table 8, read-out: DHODH IC50/nM.

In general, inhibition refers to the drop in the measured response relative to a control, in per cent.

Where two headings read alike, the source gives them in different places. Some results are limits rather than exact numbers.

dihydroorotate dehydrogenase (DHODH), sequence (Q02127 whole entry): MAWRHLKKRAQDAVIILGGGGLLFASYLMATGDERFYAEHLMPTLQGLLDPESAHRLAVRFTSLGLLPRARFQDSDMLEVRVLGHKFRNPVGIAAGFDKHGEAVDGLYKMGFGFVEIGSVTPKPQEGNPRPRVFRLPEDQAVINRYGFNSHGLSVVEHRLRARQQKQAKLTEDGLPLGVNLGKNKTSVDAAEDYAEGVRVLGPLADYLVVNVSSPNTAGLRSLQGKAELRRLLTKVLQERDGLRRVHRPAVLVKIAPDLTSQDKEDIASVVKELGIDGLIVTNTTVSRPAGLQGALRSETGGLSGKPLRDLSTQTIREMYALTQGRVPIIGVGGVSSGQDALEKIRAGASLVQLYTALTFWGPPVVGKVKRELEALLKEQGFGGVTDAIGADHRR

Regarding `O=C(O)C1=C(C(=O)Nc2c(F)cc(-c3ccccc3Cl)cc2F)CSC1` [Compound 2, 4-(2′-Chloro-3,5-difluoro-biphenyl-4-ylcarbamoyl)-2,5-dihydro-thiophene-3-carboxylic acid], the IC50 in data set [1] (DHODH IC50/nM, Table 1) was less than 20 nM; in data set [1] (setting [4]), less than 20 nM. The compound further showed a TC50 in data set [2] of more than 100 µM. For the same compound, the EC50 amounted to 920 nM in the data set on HIV-191US005 (Endpoint RT, seven days); 1380 nM in the data set with HIV-191US005 (Endpoint p24, seven days); 680 nM in data set [3]. Further, the EC90 in the data set with HIV-191US005 (Endpoint RT, seven days) amounted to 2590 nM; with HIV-191US005 (Endpoint p24, seven days), 2770 nM. Also, the TC50/nM in the data set with human PBMCs was more than 100000 nM.
As for `O=C(Nc1ccc(-c2ccccc2)cc1)Nc1ccccc1C(=O)O` [Compound 7, 2-(3-biphenyl-4-ylureido)benzoic acid], the IC50 in data set [1] (DHODH IC50/nM, Table 1) is less than 20 nM. Besides, in the data set with HIV-191US005 (Endpoint RT, seven days), the EC50 amounted to 50 nM and the EC90 came to 210 nM. Moreover, in the data set on HIV-191US005 (Endpoint p24, seven days), the EC50 turned out to be 60 nM and the EC90 turned out to be 230 nM. For the same compound, in the data set with human PBMCs, the TC50/nM was more than 100000 nM.
As for `COc1cccc(-c2c(F)c(F)c(NC(=O)c3occc3C(=O)O)c(F)c2F)c1` [Compound 8, 2-(2,3,5,6-tetrafluoro-3′-methoxybiphenyl-4-ylcarbamoyl)furan-3-carboxylic acid], the IC50 in data set [1] (DHODH IC50/nM, Table 1) is less than 20 nM; in data set [1] (setting [5]), less than 20 nM. Further, the inhibition at 30 µM in the data set on Influenza Virus (H7N7) is more than 50%. Also, the EC50 in the data set on HIV-191US005 (Endpoint RT, seven days) came to 760 nM; with HIV-191US005 (Endpoint p24, seven days), 840 nM. In addition, the EC90 in the data set on HIV-191US005 (Endpoint RT, seven days) turned out to be 2700 nM; with HIV-191US005 (Endpoint p24, seven days), 2970 nM. Further, the TC50/nM with human PBMCs was more than 100000 nM.
On to `CCOc1cccc(-c2cc(F)c(NC(=O)c3cscc3C(=O)O)c(F)c2)c1` [Compound 9, 4-(3′-ethoxy-3,5-difluorobiphenyl-4-ylcarbamoyl)thiophene-3-carboxylic acid], for which the IC50 in data set [1] (setting [5]) is less than 20 nM. The inhibition at 30 µM in the data set on Influenza Virus (H7N7) is more than 80%.
For `COc1cccc(-c2c(F)c(F)c(NC(=O)C3=C(C(=O)O)CCC3)c(F)c2F)c1` [Compound 10, 2-(2,3,5,6-tetrafluoro-3′-methoxybiphenyl-4-ylcarbamoyl)cyclopent-1-enecarboxylic acid], the inhibition at 30 µM in the data set with Influenza Virus (H7N7) was more than 80%.
As to `COc1ccccc1-c1c(F)c(F)c(NC(=O)C2=C(C(=O)O)CCC2)c(F)c1F` [Compound 11, 2-(2,3,5,6-tetrafluoro-2′-methoxybiphenyl-4-ylcarbamoyl)cyclopent-1-enecarboxylic acid], the IC50 in data set [1] (setting [5]) is less than 20 nM. In the data set with Influenza Virus (H7N7), the EC50 was approximately 3000 nM and the inhibition at 30 µM was more than 90%.
As to `O=C(O)C1=C(C(=O)Nc2c(F)cc(-c3cccc(OC(F)(F)F)c3)cc2F)CCC1` [Compound 12, 2-(3,5-difluoro-3′-(trifluoromethoxy)biphenyl-4-ylcarbamoyl)cyclopent-1-enecarboxylic acid], the IC50 in data set [1] (setting [5]) lay in the range of 20 to 200 nM. The inhibition at 30 µM in the data set on Influenza Virus (H7N7) is more than 80%.
For `O=C(O)C1=C(C(=O)Nc2c(F)c(F)c(-c3cccc(OC(F)(F)F)c3)c(F)c2F)C(O)CC1` (stereo not shown) [Compound 13, 3-hydroxy-2-(2,3,5,6-tetrafluoro-3′-(trifluoromethoxy)biphenyl-4-ylcarbamoyl)cyclopent-1-enecarboxylic acid], in that order: less than 20 nM and more than 50%.
For `COc1ccc(-c2ccc(NC(=O)C3=C(C(=O)O)CCC3)cc2Cl)cc1` [Compound 14, 2-(2-chloro-4′-methoxybiphenyl-4-ylcarbamoyl)cyclopent-1-enecarboxylic acid], the IC50 was 20 to 200 nM in data set [1] (DHODH IC50/nM, Table 1) and 20 to 200 nM in data set [1] (setting [5]). Besides, the inhibition at 30 µM in the data set with Influenza Virus (H7N7) was more than 50%. The EC50 was 5240 nM in the data set on HIV-191US005 (Endpoint RT, seven days) and 5180 nM in the data set with HIV-191US005 (Endpoint p24, seven days). In addition, the EC90 was 12200 nM in the data set with HIV-191US005 (Endpoint RT, seven days) and 16600 nM in the data set with HIV-191US005 (Endpoint p24, seven days). For the same compound, the TC50/nM in the data set on human PBMCs is more than 100000 nM.
`O=C(O)c1cscc1C(=O)Nc1c(F)cc(-c2cccc(OC(F)(F)F)c2)cc1F` [Compound 15, 4-(3,5-difluoro-3′-(trifluoromethoxy)biphenyl-4-ylcarbamoyl)thiophene-3-carboxylic acid]: the IC50 in data set [1] (setting [5]) is less than 20 nM. In addition, the inhibition at 30 µM in the data set with Influenza Virus (H7N7) is more than 80%.
Turning to `O=C(O)C1=C(C(=O)Nc2ccc(OCc3c(F)cccc3Cl)c(F)c2)CCC1` [Compound 21, 2-[4-(2-Chloro-6-fluoro-benzyloxy)-3-fluoro-phenylcarbamoyl]-cyclopent-1-enecarboxylic acid], in data set [1] (setting [4]), the IC50 was in the range of 20 to 200 nM. The compound further came in with a TC50 in data set [2] of more than 30 µM. The EC50 in data set [3] was determined as 1740 nM.
The matching figures for `O=C(O)C1=C(C(=O)Nc2cc(Cl)c(OCc3c(F)cccc3Cl)c(Cl)c2)CCC1` [Compound 22, 2-[3,5-Dichloro-4-(2-chloro-6-fluoro-benzyloxy)-phenylcarbamoyl]-cyclopent-1-enecarboxylic acid]: 20 to 200 nM, more than 30 µM and 1760 nM.
In data set [1] (DHODH IC50/nM, Table 1), `CN(C)c1ccc(-c2ccc(NC(=O)C3=C(C(=O)O)CCC3)cc2Cl)cc1` [Compound 23, 2-(2-Chloro-4′-dimethylamino-biphenyl-4-ylcarbamoyl)-cyclopent-1-enecarboxylic acid] gave an IC50 of 20 to 200 nM. Besides, in the data set with HIV-191US005 (Endpoint RT, seven days), the EC50 is 1070 nM and the EC90 is 3480 nM. Besides, in the data set on HIV-191US005 (Endpoint p24, seven days), the EC50 was 1000 nM and the EC90 worked out at 3720 nM. Also, the TC50/nM in the data set with human PBMCs is on record as more than 100000 nM.
The compound `COc1cccc(-c2ccc(NC(=O)c3ccsc3C(=O)O)c(F)c2)c1` [Compound 24, 3-(3-Fluoro-3′-methoxy-biphenyl-4-ylcarbamoyl)-thiophene-2-carboxylic acid] showed an IC50 in data set [1] of 20 to 200 nM. In the data set on HIV-191US005 (Endpoint RT, seven days), the EC50 worked out at 3970 nM and the EC90 is 9070 nM. Moreover, in the data set on HIV-191US005 (Endpoint p24, seven days), the EC50 worked out at 4540 nM and the EC90 worked out at 12300 nM. In addition, the TC50/nM in the data set with human PBMCs was 55800 nM.
For `O=C(O)C1=C(C(=O)Nc2c(F)c(F)c(-c3cccc(OC(F)(F)F)c3)c(F)c2F)CSC1` [Compound 25, 4-(2,3,5,6-Tetrafluoro-3′-trifluoromethoxy-biphenyl-4-ylcarbamoyl)-2,5-dihydro-thiophene-3-carboxylic acid], the IC50 in data set [1] (DHODH IC50/nM, Table 1) was less than 20 nM. In addition, in the data set with HIV-191US005 (Endpoint RT, seven days), the EC50 came out at 1560 nM and the EC90 is 3020 nM. In addition, in the data set on HIV-191US005 (Endpoint p24, seven days), the EC50 is 1180 nM and the EC90 came out at 3160 nM. The same compound registered a TC50/nM with human PBMCs of more than 100000 nM.
